Data: patent US7465842B2, “Enantioselective biotransformation for preparation of protein tyrosine kinase inhibitor intermediates” (Agouron Pharmaceuticals, Inc., priority 2004, dated 2008)

Experiments:
[1] = Solubility of the precursor in water; assay type: physicochemical
[2] = Enzyme screening: stereoselective hydrolysis (kinetic resolution) of racemic 1-(2,6-dichloro-3-fluorophenyl)ethyl acetate; assay type: biochemical; settings: selective for hydrolysis of (S)-acetate; 5% substrate load, 100 mM potassium phosphate buffer pH 7.2
Method: For example, for stereoselective hydrolysis of esters by biocatalysts, a program (Ee2 software-University of Graz) can accurately calculate the E value if the enantiomeric excess (ee) of either the alcohol or the ester at one particular enzymatic conversion are known. The ee value can be obtained, for example, from Equation 1. The [S] and [R] data can be obtained, for example, by HPLC.
The resolution of 1-(2,6-dichloro-3-fluorophenyl)ethyl acetate was carried out as follows. A 96-well plate prepared as described above was thawed for 5 minutes. 80 μL of potassium phosphate buffer (0.1 M, pH 7.2) was then dispensed into the wells using a multi-channel pipette. 10 μL of the substrate stock solution (50 mg/mL acetonitrile) was then added to each well via a multi-channel pipette, and the 96 reactions were incubated at 30° C. and 750 rpm. The reactions were sampled after 16 hours by the transfer of 25 μL of the reaction mixture into a new 96-well plate, which was then quenched by the addition of 150 μL of acetonitrile. The 96-well plate was then centrifuged, and the organic supernatant transferred from each well into another 96-well plate. Sampled reactions were then sealed using a penetrable mat cover and transferred to an HPLC system for analysis. The same plate was used to analyze the samples for both reactivity and enantioselectivity using alternating columns on the HPLC simultaneously. […]

Row | Molecule | solubility [1] [µg/mL] | Reactivity [2]
1 | CC(=O)c1c(Cl)ccc(F)c1Cl [precursor, 1-(2,6-dichloro-3-fluorophenyl)ethanone] | < 2500 | 
2 | Subtilisin Carlsberg (protease from Bacillus licheniformis): commercially available hydrolase of the enzyme screening kit (protein, UniProt P00780 106-379, looked up) Subtilisin Carlsberg: AQTVPYGIPLIKADKVQAQGFKGANVKVAVLDTGIQASHPDLNVVGGASFVAGEAYNTDGNGHGTHVAGTVAALDNTTGVLGVAPSVSLYAVKVLNSSGSGSYSGIVSGIEWATTNGMDVINMSLGGASGSTAMKQAVDNAYAKGVVVVAAAGNSGSSGNTNTIGYPAKYDSVIAVGAVDSNSNRASFSSVGAELEVMAPGAGVYSTYPTNTYATLNGTSMASPHVAGAAALILSKHPNLSASQVRNRLSSTATYLGSSFYYGKGLINVEAAAQ |  | Low
